Measured values reported in PMC5449454, “Anti-Double-Stranded DNA IgG Participates in Renal Fibrosis through Suppressing the Suppressor of Cytokine Signaling 1 Signals” (Frontiers in Immunology, 2017).
Where no end group is shown, it is not given here.

Assays:
MRL/lpr mice = conditions: ref [28]; cited from earlier work
Text: The JAK2/STAT1 pathway mediates the renal damage in lupus models induced by anti-dsDNA antibodies. […] Moreover, STAT1 deficiency in the lupus-like chronic graft-versus-host disease model led to a prolonged but amplified increase of anti-dsDNA IgG in sera and also higher proteinuria and mortality ([29]). This phenomenon might be du ...

anti-dsDNA IgG = assay: MALDI-TOF MS, catalysis of peptide by anti-dsDNA IgG; set-up: species or system murine; conditions: peptide 2 µg/ml with IgG (molar ratio = 1:5), 37°C, 30 min, triplicate
Description: Matrix-assisted laser desorption/ionization–time of flight mass spectrometry was performed for identifying the sequences of peptide fragments. As described previously ([36]), an ABI 4800 Analyzer (AB Science, Foster City, CA, USA) was used for such analysis. The ALW (L-form or D-form) and KIR peptides (2 µg/ml) were mixed with anti-dsDNA IgG or control IgG (molar ratio = 1:5), respectively. The mixtures were incubated at 37°C for 30 min. Then, these samples were diluted in distilled water (1:100) and then mixed with the α-cyano-4-hydroxycinnamic acid matrix at a ratio of 1:1. Samples in triplicate were then loaded to the MALDI target. Mass spectrum was produced on 80 individual spectra of each spot.

KIR peptide (SOCS1) = target: T1, KIR peptide (SOCS1) (Mus musculus, UniProt O35716); assay: Surface plasmon resonance, JAK2 loop peptide over immobilized biotinylated KIR peptide; type: binding; conditions: SPR, JAK2 loop peptide 0–250 nM
T1 construct: The KIR of SOCS1 was synthesized as a 16-mer peptide (2.09 kDa); purchased Sangon Biotech Company (Shanghai, China); host or cells: chemical synthesis
Description: The Biacore 3000 instrument (Biacore, Piscataway, NJ, USA) was used for the quantitation of binding affinities ([8], [35]). For anti-dsDNA IgG binding to KIR peptide, anti-dsDNA IgG (10 nM in MES buffer) was immobilized on a CM sensor chip (GE Healthcare, Port Washington, NY, USA), and then KIR peptide (0–250 nM in HEPES buffer) was run on chip. For JAK2 loop peptide binding to KIR peptide, the biotinylated KIR peptide (5 nM) was immobilized on streptavidin-coated sensor chip, followed by injection of JAK2 loop peptide (0–250 nM). A simple Langmuir model (A + B ↔ AB) was used for calculating binding kinetics.

[1] = target: T2, biotinylated SOCS1 kinase inhibitory region (KIR) peptide (also: biotinylated (position not given here)); assay: SPR; Biacore 3000; biotinylated KIR peptide (5 nM) immobilised on a streptavidin-coated sensor chip, JAK2 loop peptide injected at 0-250 nM; simple Langmuir model (A + B ↔ AB); conditions: both partners purified
T2 construct: Captured by its biotin on streptavidin-coated sensor chips and plates; An unbiotinylated KIR peptide was run over the immobilised anti-dsDNA IgG only; also called SOCS1-KIR; biotinylated KIR peptide; source: synthetic peptide (Sangon Biotech Company)
T2 peptide: DTHFRTFRSHSDYRRI

[2] = target: T2, biotinylated SOCS1 kinase inhibitory …; assay: ELISA; inhibition ELISA; biotinylated KIR peptide (5 µg/ml) on streptavidin-coated 96-well plates; FITC-labeled JAK2 loop peptide (0.2 µg/ml) pre-incubated with serially diluted anti-dsDNA IgG (0.02 to 20 µg/ml) or control IgG; fluorescein intensity read; conditions: both partners purified

## N#C/C(=C\c1ccc(O)c(O)c1)C(=O)NCc1ccccc1 [tyrphostin AG490]
MRL/lpr mice
  glomerular deposition of anti-dsDNA IgG: decrease
  phosphorylation of JAK2: significantly inhibited
  phosphorylation of STAT1: significantly inhibited
  proteinuria: decrease
  renal histological lesions: decrease
  serum titer of anti-dsDNA IgG: decrease

## DTHFRTFRSHSDYRRI [KIR peptide]
anti-dsDNA IgG
  catalysis of KIR peptide by anti-dsDNA IgG: almost catalyzed by anti-dsDNA IgG

## LPQDKEYYKVKEP [JAK2 loop peptide]
KIR peptide (SOCS1); Biacore 3000, biotinylated KIR peptide (5 nM) immobilized on streptavidin chip, simple Langmuir model
  Kd: 44.6 nM
KIR peptide (SOCS1); biotinylated KIR peptide immobilized, Langmuir model, read-out: Ka (association rate)
  kon: 13500 M⁻¹ s⁻¹
KIR peptide (SOCS1); biotinylated KIR peptide immobilized, Langmuir model, read-out: Kd (dissociation rate)
  koff: 0.000603 s⁻¹

B1: JAK2 loop peptide (peptide)
peptide: LPQDKEYYKVKEP
notes: loop region of Janus kinase 2 (JAK2), 13-mer, 1.64 kDa; the SPR methods name the 'JAK2 loop peptide' without a label; source: synthetic peptide (Sangon Biotech Company)
[1]
  Kd: 44.6 nM
  koff: 0.000603 s⁻¹
  kon: 13500 M⁻¹ s⁻¹

B2: FITC-labeled JAK2 loop peptide (peptide)
peptide: LPQDKEYYKVKEP
modifications: also: FITC-labeled (position not given here)
notes: loop region of Janus kinase 2 (JAK2), 13-mer; also called FITC–JAK2 loop; FITC (0.39 kDa)–JAK2 loop; source: synthetic peptide (Sangon Biotech Company)
[2]
  binding result: binds
